According to patent US5136093A, “Quaternized panthenol compounds and their use” (priority 1991, dated 1992):
Entries after “also recorded” stand apart in the source; their conditions may differ.

Assays:
[1] = aqueous solutions; hydrolysis increases as pH varies from optimum; cited from earlier work
[2] = Rubine dye uptake (substantivity) on human hair swatches/tresses; settings: for Rubine dye uptake / uptake with respect to the positive control: 50% aqueous solution (panthenol) or 50% solids aqueous solution; for Rubine dye uptake: Demeo Natural White Hair, read at 520 nm; for uptake with respect to the positive control: relative to positive control; for greater uptake than the unquaternized panthenol: human hair swatches
Source text: In the following Examples, the qualitative test for measuring the substantivity of the compounds on hair was the Rubine Dye Test using Pyrazol Fast Bordeaux, as described in U.S. Pat. No. 3,769,398 to Hewitt and Crawford et al. J. Soc. Cosmet. Chem. 31, 273-278 (1980), the entire disclosures of which are incorporated herein by reference. The intensity of the residual pink color, after rinsing, on a hair swatch previously treated with the compound, is an indication of the degree of deposition of the compound onto the hair. Absence of pink color points to a lack of substantivity.
In a one liter reaction flask, fitted with a stirrer, thermometer reflux condenser, heating mantle and a feed funnel, 205 grams of deionized water was charged. 205 grams (1 mole) of d,l-panthenol was charged in the water and stirred until dissolved. In a separate, stirred, one liter vessel, 376 grams (1 mole) of 50% aqueous QUAB 188 (3-Chloro-2-hydroxypropyl trimethylammonium chloride) was reacted with approximately 80 grams (1 mole) of 50% aqueous sodium hydroxide solution, to form a solution of QUAB 151 (2, 3-Epoxypropyl trimethyl ammonium chloride), to a pH of ^~ 9.5. The batch was heated to 50°-60° C., and the QUAB 151 solution was added to the panthenol solution through the feed funnel. The pH of the reaction mixture was checked, and adjusted to ^~ 9.5 with a small additional amount of 50% sodium hydroxide solution, as required. The batch was then agitated at 50°-60° C. for a four hour period to assure complete reaction. The pH of the batch was then adjusted to 6.5-8.0 with a small amount of lactic acid. The resultant product was a clear yellow solution, containing approximately 50% of trimethyl quaternized panthenol.
In a two liter reaction flask, fitted with a stirrer, thermometer, reflux condenser, heating mantle and a feed funnel, 205 grams of deionized water was charged. 205 grams (1 mole) of d,l- panthenol was charged into the water and stirred until dissolved. In a separate stirred one liter vessel, 852 grams (1 mole) of 50% aqueous QUAB 426 (3-Chloro-2-hydroxypropyl stearyl dimethylammonium chloride) was reacted with approximately 80 grams (1 mole) of 50% aqueous sodium hydroxide solution, to form a solution of QUAB 393 (2,3-Epoxypropyl stearyl dimethyl ammonium chloride), to a pH of ^~ 9.5. The batch was heated to 50°-60° C., and the QUAB 393 solution was added to the panthenol solution through the feed funnel. The pH of the reaction mixture was checked, and adjusted to ^~ 9.5 with a small additional amount of 50% sodium hydroxide solution, as required. The batch was then agitated at 50°-60° C. for a four hour period to assure complete reaction. The pH of the batch was then adjusted to 6.5-8.0 with a small amount of lactic acid. The resultant product was a clear yellow solution, containing approximately 50% solids, of which approximately 43% was stearyl dimethyl quaternized panthenol.
Rubine Dye uptake as a measure of substantivity.
Four tresses of Demeo Natural White Hair weighing approximately 0.5 grams each were immersed in 15 grams of the appropriate solution (i.e. positive control, negative control and test samples) for a period of not less than 5 minutes. Each tress was then rinsed five times with 100 ml of water at 120° F.
The tresses were then immersed in a solution of fast Rubine dye for 15 minutes, rinsed five times with 100 ml of water at 105° F., then air dried overnight on filter paper. Each tress was weighed directly into a tared beaker. The dye was stripped from the hair and the solution then brought to the volume with deionized water. The transmission of each sample was then read at 520 nm and its absorbance adjusted to the weight of the hair sample. The dye concentration was calculated from a standard calibration curve.

[3] = Compatibility with formulation ingredients; assay type: physicochemical; settings: in finished cosmetic formulation
Protocol: Procedure: The water was weighed into a beaker. Each Phase A ingredient was then added to the water phase in the order listed and mixed thoroughly after the addition of each ingredient. The fragrance was dissolved in the alcohol and Phase B was added to Phase A and mixed until clear and uniform.
Procedure: Phase A was heated to 55° C. Phase B was added and mixed until uniform. Phase C ingredients were added in the order listed and mixed until uniform. When the batch cooled to 45° C., Phase E and Phase F were added and the batch was mixed until uniform. The pH was adjusted with Citric Acid. Phase H was added and the batch was mixed until uniform.
Procedure: The Siltech C-2145CG emulsion was predispersed in the Phase A water in a beaker. The Phase "B" ingredients were dissolved one at a time into the remainder of the water and mixed until clear. Phase "C" ingredients were mixed until clear and uniform. Phase "A" was added to Phase "B" with agitation. Then Phase "C" and "D" were added and the batch was mixed until uniform.
Procedure: Phase A was weighed into a beaker and was then mixed until clear and uniform. Phase B and then Phase C were added to Phase A while mixing. The batch was mixed until clear and uniform.
Procedure: Ucare Polymer JR was dispersed in the water. After the polymer was dispersed, the Methylparaben was added. Phase A was then heated to 60° C. […]

| SMILES | optimum pH for stability [1] | Rubine dye uptake [2] | uptake with respect to the positive control [2] | other results |
| --- | --- | --- | --- | --- |
| CC(C)(CO)C(O)C(=O)NCCCO (racemic) [d,l-Panthenol] | approximately 6 | – | – | – |
| CCCCCCCCCCCCCCCCCC[N+](C)(C)CC(O)COCC(C)(C)C(O)C(=O)NCCCO (racemic) [stearyl dimethyl quaternized panthenol] | – | 66.30 mg of dye/50 gm of hair | 46.74% | greater uptake than the unquaternized panthenol, adjusted for concentration of active material ([2]; 50% solids aqueous solution vs panthenol 50% aqueous solution, adjusted for concentration of active material): ~31%; greater uptake than the unquaternized panthenol ([2]; versus a 50% panthenol solution, not adjusted for active material): ~27%; compatibility with other ingredients [3]: compatible with the anionic surfactants that make up the shampoo; also recorded: compatible with the cationic silicone emulsion (Siltech E-2145CG) and with the hair fixative polymer; also recorded: compatible with the hair fixative polymer and with the ethanol; also recorded: compatible with the other cationic ingredients in the formula; also recorded: compatible with all of the nonionic ingredients in the formula; also recorded: compatible with the anionic soaps and surfactants in the Neutrogena™ soap bar |
| CC(C)(COCC(O)C[N+](C)(C)C)C(O)C(=O)NCCCO (racemic) [trimethyl quaternized panthenol] | – | – | – | greater uptake than the unquaternized panthenol ([2]; versus panthenol solution of comparable concentration): ~7% |
| CC(C)(CO)C(O)C(=O)NCCCO (stereo not shown) [Panthenol] | – | 52.35 mg of dye/50 gm of hair | 36.91% | – |
| CC(C)(CO)[C@@H](O)C(=O)NCCCO [d-Panthenol] | approximately 6 | – | – | – |
